Measured values published in ChEMBL document CHEMBL6121006, “Marine natural product-inspired discovery of novel BRD4 inhibitors with anti-inflammatory activity” (Eur J Med Chem, 2025).
Active and inactive are the calls of the source. The rule behind the calls is not given here.

Tests used:
Mus musculus [1] = test: Antiinflammatory activity against LPS-induced C57BL/6 mouse acute inflammation model assessed as rescue of increased inflammatory cell infiltration in kidney at 50 to 100 mg/kg, po pre-administered for 2 hrs followed by LPS stimulation for 6 hrs; assay type: functional, organism-based; details: dose 50-100 mg/kg, time 8.0 hrs
[2] = Toxicity in C57BL/6 mouse effect on intestine at 100 mg/kg, po measured after 24 hrs; assay type: organism-based; details: in vivo
Mus musculus [3] = test: Antiinflammatory activity against LPS-induced C57BL/6 mouse acute inflammation model assessed as improvement of internal brush boundary structure at 100 mg/kg, po pre-administered for 2 hrs followed by LPS stimulation for 6 hrs; assay type: functional, organism-based; details: time 8.0 hrs
Mus musculus [4] = test: Antiinflammatory activity against LPS-induced C57BL/6 mouse acute inflammation model assessed as increase in proportion of normal renal tubules at 100 mg/kg, po pre-administered for 2 hrs followed by LPS stimulation for 6 hrs; assay type: functional, organism-based; details: time 8.0 hrs
Mus musculus [5] = test: Antiinflammatory activity against LPS-induced C57BL/6 mouse acute inflammation model assessed as improvement of excessive inflammatory cell infiltration in liver at 50 to 100 mg/kg, po pre-administered for 2 hrs followed by LPS stimulation for 6 hrs; assay type: functional, organism-based; details: dose 50-100 mg/kg, time 8.0 hrs
RAW264.7 [6] = test: Anti-inflammatory activity in mouse RAW264.7 cells assessed as inhibition of LPS-induced IL-6 level preincubated with compound for 2 hrs followed by LPS stimulation and measured after 22 hrs by ELISA method; assay type: functional, cell-based; details: dose 2.5-20 µM, time 24.0 hrs
THP-1 [7] = test: Anti-inflammatory activity in human THP-1 cells assessed as inhibition of LPS-induced TNF-alpha level preincubated with compound for 2 hrs followed by LPS stimulation and measured after 22 hrs by ELISA method; assay type: functional, cell-based; details: dose 2.5-20 µM, time 24.0 hrs
[8] = Toxicity in C57BL/6 mouse effect on kidney at 100 mg/kg, po measured after 24 hrs; assay type: organism-based; details: in vivo
[9] = target: Bromodomain-containing protein 2 (Homo sapiens) (UniProt P25440); test: Inhibition of BRD2 BD1 (unknown origin) at 1 uM incubated for 2 hrs by TR-FRET assay relative to control
[10] = target: CREB-binding protein (Homo sapiens) (UniProt Q92793); test: Inhibition of CREBBP (unknown origin) at 1 uM incubated for 2 hrs by TR-FRET assay relative to control
THP-1 [11] = test: Cytotoxicity against human THP-1 cells at 20 uM measured after 24 hrs by CCK8 method; assay type: functional, cell-based
[12] = target: Transcription initiation factor TFIID subunit 1 (Homo sapiens) (UniProt P21675); test: Inhibition of TAF1 (unknown origin) at 1 uM incubated for 2 hrs by TR-FRET assay relative to control
[13] = Toxicity in C57BL/6 mouse effect on heart at 100 mg/kg, po measured after 24 hrs; assay type: organism-based; details: in vivo
Mus musculus [14] = test: Antiinflammatory activity against LPS-induced C57BL/6 mouse acute inflammation model assessed as rescue of damaged glomerular cells in kidney at 50 to 100 mg/kg, po pre-administered for 2 hrs followed by LPS stimulation for 6 hrs; assay type: functional, organism-based; details: dose 50-100 mg/kg, time 8.0 hrs
[15] = Toxicity in C57BL/6 mouse effect on spleen at 100 mg/kg, po measured after 24 hrs; assay type: organism-based; details: in vivo
[16] = Toxicity in C57BL/6 mouse effect on liver at 100 mg/kg, po measured after 24 hrs; assay type: organism-based; details: in vivo
RAW264.7 [17] = test: Anti-inflammatory activity in mouse RAW264.7 cells assessed as inhibition of LPS-induced TNF-alpha level preincubated with compound for 2 hrs followed by LPS stimulation and measured after 22 hrs by ELISA method; assay type: functional, cell-based; details: dose 2.5-20 µM, time 24.0 hrs
RAW264.7 [18] = test: Cytotoxicity against mouse RAW264.7 cells at 20 uM measured after 24 hrs by CCK8 method; assay type: functional, cell-based
THP-1 [19] = test: Anti-inflammatory activity in human THP-1 cells assessed as inhibition of LPS-induced IL-6 level preincubated with compound for 2 hrs followed by LPS stimulation and measured after 22 hrs by ELISA method; assay type: functional, cell-based; details: dose 2.5-20 µM, time 24.0 hrs
RAW264.7 [20] = test: Anti-inflammatory activity in mouse RAW264.7 cells assessed as inhibition of LPS-induced NO production at 10 uM preincubated with compound for 24 hrs followed by LPS stimulation by Griess reagent based analysis relative to control; assay type: functional; design: scale not given: the % may be the effect or the level left
THP-1 [21] = test: Anti-inflammatory activity in human THP-1 cells assessed as inhibition of LPS-induced IL-6 expression preincubated with compound for 2 hrs followed by LPS stimulation and measured after 6 hrs by RT-qPCR analysis; assay type: functional, cell-based; details: dose 2.5-20 µM, time 8.0 hrs
[22] = target: Bromodomain-containing protein 4 (Homo sapiens, UniProt O60885); test: Inhibition of human recombinant BRD4 BD1 (42 to 167 residues) extracted from Escherichia coli BL21 (DE3) at 10 uM incubated for 2 hrs by TR-FRET assay relative to control
[23] = target: T1, Bromodomain-containing protein 9 (Homo sapiens) (UniProt Q9H8M2); test: Inhibition of BRD9 (unknown origin) at 1 uM incubated for 2 hrs by TR-FRET assay relative to control
T1 sequence (whole entry): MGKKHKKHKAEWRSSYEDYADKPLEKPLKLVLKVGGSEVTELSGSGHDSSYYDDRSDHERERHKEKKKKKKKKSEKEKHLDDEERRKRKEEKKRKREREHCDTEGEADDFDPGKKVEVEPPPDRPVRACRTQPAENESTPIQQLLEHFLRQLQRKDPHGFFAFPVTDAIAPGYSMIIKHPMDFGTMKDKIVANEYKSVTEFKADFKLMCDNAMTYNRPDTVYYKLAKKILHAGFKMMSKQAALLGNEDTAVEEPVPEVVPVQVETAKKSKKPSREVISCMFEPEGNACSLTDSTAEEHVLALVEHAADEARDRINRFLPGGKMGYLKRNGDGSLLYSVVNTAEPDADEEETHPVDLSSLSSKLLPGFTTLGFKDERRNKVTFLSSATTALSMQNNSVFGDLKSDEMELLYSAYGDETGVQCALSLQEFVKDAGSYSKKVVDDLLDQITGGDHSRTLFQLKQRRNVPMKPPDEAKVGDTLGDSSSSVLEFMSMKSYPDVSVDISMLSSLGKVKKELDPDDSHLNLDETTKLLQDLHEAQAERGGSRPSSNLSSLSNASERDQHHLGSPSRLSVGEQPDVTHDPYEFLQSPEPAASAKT

Mus musculus [24] = test: Antiinflammatory activity against LPS-induced C57BL/6 mouse acute inflammation model assessed as rescue of damaged renal tubule cells in kidney at 50 to 100 mg/kg, po pre-administered for 2 hrs followed by LPS stimulation for 6 hrs; assay type: functional, organism-based; details: dose 50-100 mg/kg, time 8.0 hrs
Mus musculus [25] = test: Antiinflammatory activity against C57BL/6 mouse acute inflammation model assessed as inhibition of LPS-induced IL-6 level at 50 to 100 mg/kg, po pre-administered for 2 hrs followed by LPS stimulation for 6 hrs by ELISA method; assay type: functional, organism-based; details: dose 50-100 mg/kg, time 8.0 hrs
[26] = target: Bromodomain-containing protein 3 (Homo sapiens) (UniProt Q15059); test: Inhibition of BRD3 BD1 (unknown origin) at 1 uM incubated for 2 hrs by TR-FRET assay relative to control
Mus musculus [27] = test: Antiinflammatory activity against C57BL/6 mouse acute inflammation model assessed as inhibition of LPS-induced TNF-alpha level at 50 to 100 mg/kg, po pre-administered for 2 hrs followed by LPS stimulation for 6 hrs by ELISA method; assay type: functional, organism-based; details: dose 50-100 mg/kg, time 8.0 hrs

Sequence of Bromodomain-containing protein 2 (Homo sapiens) (P25440 whole entry, looked up): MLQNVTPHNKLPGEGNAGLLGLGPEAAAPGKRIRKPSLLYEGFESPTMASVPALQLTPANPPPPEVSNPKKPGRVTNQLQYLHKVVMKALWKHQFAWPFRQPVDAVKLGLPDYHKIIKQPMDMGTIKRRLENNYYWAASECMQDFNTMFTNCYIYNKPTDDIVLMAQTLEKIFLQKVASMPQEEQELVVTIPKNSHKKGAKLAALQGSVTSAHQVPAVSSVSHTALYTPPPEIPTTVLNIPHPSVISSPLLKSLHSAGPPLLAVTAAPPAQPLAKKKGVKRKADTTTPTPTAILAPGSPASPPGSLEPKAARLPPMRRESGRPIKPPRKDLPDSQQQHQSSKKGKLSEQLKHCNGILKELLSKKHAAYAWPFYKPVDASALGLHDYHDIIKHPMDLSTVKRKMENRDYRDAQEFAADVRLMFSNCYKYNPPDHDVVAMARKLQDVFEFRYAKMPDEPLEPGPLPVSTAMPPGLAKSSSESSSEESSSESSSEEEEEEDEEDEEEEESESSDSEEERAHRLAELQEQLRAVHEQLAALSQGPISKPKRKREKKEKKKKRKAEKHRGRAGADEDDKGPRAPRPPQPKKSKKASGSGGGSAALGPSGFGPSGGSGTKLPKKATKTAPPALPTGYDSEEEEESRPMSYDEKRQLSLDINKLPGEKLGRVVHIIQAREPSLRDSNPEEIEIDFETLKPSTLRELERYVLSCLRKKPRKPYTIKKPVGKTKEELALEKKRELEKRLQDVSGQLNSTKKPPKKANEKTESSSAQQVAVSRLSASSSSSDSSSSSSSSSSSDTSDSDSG
Sequence of CREB-binding protein (Homo sapiens) (Q92793 2-2442 limits assumed): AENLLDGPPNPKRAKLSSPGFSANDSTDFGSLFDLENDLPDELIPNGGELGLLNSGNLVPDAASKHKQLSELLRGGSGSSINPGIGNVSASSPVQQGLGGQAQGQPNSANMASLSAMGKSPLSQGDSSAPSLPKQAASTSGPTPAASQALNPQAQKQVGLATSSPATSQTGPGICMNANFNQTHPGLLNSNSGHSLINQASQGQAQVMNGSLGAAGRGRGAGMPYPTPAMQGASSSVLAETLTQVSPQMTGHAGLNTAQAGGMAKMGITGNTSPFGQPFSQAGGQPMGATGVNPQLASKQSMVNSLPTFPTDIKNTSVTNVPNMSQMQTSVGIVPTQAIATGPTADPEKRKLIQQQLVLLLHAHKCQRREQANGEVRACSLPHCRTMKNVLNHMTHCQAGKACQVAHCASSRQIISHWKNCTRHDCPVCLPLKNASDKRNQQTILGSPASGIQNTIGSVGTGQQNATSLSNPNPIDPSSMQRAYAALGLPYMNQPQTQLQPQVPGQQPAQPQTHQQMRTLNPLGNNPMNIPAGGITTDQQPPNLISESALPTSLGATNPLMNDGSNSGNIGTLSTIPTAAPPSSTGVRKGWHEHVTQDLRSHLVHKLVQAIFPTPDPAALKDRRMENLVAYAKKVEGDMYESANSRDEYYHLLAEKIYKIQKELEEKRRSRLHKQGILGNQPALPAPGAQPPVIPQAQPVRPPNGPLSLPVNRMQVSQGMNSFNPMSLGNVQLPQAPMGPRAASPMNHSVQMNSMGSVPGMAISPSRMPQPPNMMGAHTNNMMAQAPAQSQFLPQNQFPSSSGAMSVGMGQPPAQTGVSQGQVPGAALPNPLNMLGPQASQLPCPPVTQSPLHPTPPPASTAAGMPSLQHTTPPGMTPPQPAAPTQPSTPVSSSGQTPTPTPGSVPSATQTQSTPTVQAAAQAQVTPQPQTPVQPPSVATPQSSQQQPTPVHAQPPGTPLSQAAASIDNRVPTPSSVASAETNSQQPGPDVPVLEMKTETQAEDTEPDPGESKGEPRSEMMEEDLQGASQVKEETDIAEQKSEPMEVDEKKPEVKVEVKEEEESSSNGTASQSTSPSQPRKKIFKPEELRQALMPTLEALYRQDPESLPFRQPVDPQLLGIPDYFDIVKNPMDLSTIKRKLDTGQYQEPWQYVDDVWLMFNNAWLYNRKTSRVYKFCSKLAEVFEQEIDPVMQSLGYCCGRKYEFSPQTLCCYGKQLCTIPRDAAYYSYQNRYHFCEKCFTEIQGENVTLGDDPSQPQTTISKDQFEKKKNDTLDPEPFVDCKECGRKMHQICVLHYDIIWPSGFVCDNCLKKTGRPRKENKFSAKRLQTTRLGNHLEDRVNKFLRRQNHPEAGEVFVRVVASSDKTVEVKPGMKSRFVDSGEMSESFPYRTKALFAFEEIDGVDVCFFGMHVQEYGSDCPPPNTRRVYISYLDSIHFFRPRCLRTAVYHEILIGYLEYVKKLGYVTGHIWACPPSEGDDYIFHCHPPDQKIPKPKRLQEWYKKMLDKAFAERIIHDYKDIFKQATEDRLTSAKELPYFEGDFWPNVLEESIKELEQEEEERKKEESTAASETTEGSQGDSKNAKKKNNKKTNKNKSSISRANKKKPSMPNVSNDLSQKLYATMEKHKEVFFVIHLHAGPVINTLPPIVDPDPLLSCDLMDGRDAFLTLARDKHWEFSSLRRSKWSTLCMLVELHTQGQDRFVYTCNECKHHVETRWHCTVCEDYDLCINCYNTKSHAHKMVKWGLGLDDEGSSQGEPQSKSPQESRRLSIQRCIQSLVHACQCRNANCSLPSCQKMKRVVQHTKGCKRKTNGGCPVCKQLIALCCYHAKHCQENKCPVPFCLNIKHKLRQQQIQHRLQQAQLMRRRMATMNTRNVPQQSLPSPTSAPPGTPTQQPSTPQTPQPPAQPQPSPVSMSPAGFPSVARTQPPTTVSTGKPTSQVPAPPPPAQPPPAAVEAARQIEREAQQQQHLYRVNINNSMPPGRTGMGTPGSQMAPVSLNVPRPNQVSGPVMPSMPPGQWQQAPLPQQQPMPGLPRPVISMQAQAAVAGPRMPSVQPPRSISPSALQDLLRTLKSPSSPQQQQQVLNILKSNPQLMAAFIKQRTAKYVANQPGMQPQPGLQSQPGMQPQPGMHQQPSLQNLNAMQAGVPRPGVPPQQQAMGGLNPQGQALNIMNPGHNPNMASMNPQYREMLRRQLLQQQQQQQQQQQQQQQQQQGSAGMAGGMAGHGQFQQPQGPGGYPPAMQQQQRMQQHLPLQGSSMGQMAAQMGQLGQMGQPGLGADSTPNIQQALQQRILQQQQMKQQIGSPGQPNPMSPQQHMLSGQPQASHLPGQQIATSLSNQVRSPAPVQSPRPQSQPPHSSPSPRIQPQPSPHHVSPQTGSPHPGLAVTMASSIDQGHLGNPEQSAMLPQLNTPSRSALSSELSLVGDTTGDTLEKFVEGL
Sequence of Bromodomain-containing protein 3 (Homo sapiens) (Q15059 2-726 limits assumed): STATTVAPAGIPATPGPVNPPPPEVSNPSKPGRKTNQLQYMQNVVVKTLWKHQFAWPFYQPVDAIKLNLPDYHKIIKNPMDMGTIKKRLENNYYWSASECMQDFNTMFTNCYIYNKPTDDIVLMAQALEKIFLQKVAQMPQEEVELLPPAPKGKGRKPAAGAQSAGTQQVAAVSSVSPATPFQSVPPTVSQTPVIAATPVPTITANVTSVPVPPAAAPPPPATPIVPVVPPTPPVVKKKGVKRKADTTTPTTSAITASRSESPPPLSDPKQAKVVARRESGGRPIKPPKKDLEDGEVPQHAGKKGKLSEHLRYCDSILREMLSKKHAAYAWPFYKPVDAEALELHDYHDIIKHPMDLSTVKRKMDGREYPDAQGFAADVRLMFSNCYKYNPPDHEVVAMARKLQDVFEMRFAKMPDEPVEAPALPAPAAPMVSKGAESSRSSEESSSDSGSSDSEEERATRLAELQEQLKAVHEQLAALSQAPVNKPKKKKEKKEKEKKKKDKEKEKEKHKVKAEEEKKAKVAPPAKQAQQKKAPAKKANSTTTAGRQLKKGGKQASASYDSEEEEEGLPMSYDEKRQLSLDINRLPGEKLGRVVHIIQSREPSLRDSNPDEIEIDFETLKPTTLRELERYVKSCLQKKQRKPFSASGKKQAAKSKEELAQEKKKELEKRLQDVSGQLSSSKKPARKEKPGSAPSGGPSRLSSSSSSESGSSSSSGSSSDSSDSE

inhibition [9]: 24% | inhibition [10]: 15% | inhibition [12]: 5% | inhibition [22]: 81% | inhibition [23]: 12% | inhibition [26]: 25%
SMILES: COc1ccc(/C=C/c2nc3cc(OC)cc(OC)c3c(=O)[nH]2)cc1
Activity (Mus musculus [1]): Active | Activity [2]: Non-toxic | Activity (Mus musculus [3]): Active | Activity (Mus musculus [4]): Active | Activity (Mus musculus [5]): Active | Activity (RAW264.7 [6]): Dose-dependent-effect | Activity (THP-1 [7]): Dose-dependent-effect | Activity [8]: Non-toxic | Activity (THP-1 [11]): inactive | Activity [13]: Non-toxic | Activity (Mus musculus [14]): Active | Activity [15]: Non-toxic | Activity [16]: Non-toxic | Activity (RAW264.7 [17]): Dose-dependent-effect | Activity (RAW264.7 [18]): inactive | Activity (THP-1 [19]): Dose-dependent-effect | Activity (RAW264.7 [20]): 106% | Activity (THP-1 [21]): Dose-dependent-effect | Activity (Mus musculus [24]): Active | Activity (Mus musculus [25]): Active | Activity (Mus musculus [27]): Active
